Measured values taken from patent US11986471B2, “Compounds and methods of use” (Tango Therapeutics, Inc., priority 2018, dated 2024).

Tests used:
Format in all cases: biochemical
[1] = target: T1, PRMT5 (Homo sapiens, UniProt O14744); test: PRMT5 IC50 assay in the presence of SAM as cofactor
T1 construct: purchased Viva (custom protein)
Description: (§1) Table 1a indicates IC50 values (μM) against PRMT5 for exemplary compounds in the presence of SAM as cofactor, with no cofactor and with MTA as cofactor, respectively (columns 3-5). […] The Ki values can be calculated from the IC50 values as described in the Examples section. As detailed in the Examples section, for the assay performed in the presence of SAM, IC50=Ki×1.5 (Ki=IC50/1.5). For the assay performed in the presence of MTA, IC50=Ki×13.5 (Ki=IC50/13.5). Column 6 indicates the ratio between the Ki of compounds in the presence of SAM and the Ki of compounds in the presence of MTA

[2] = target: T1, PRMT5; test: PRMT5 IC50 assay with no cofactor
Description: as §1

[3] = target: T1, PRMT5; test: PRMT5 IC50 assay in the presence of MTA as cofactor; details: for IC50: PRMT5, MTA as cofactor
Description: as §1

[4] = ratio between the Ki in the presence of SAM and the Ki in the presence of MTA
[5] = ratio between Ki in the presence of SAM and Ki in the presence of MTA

T1 sequence (O14744 whole entry): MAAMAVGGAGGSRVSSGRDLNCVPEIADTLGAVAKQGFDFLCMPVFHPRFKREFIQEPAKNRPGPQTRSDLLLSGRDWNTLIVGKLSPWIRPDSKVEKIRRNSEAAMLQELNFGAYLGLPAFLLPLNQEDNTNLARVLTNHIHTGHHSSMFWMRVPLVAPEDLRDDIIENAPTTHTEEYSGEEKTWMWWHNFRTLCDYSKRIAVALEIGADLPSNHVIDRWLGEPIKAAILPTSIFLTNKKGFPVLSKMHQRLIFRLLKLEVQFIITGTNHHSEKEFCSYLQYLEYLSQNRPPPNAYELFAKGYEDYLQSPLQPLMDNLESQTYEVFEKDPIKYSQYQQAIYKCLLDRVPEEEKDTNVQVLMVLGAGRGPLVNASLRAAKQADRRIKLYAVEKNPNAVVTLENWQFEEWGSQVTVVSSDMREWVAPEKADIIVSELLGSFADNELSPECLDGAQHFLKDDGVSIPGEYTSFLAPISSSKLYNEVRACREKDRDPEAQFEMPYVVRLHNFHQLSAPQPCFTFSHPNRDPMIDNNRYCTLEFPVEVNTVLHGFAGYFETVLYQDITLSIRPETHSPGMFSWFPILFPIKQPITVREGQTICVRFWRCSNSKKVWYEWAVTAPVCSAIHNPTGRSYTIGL
T1 sequence (Q9BQA1 whole entry partner): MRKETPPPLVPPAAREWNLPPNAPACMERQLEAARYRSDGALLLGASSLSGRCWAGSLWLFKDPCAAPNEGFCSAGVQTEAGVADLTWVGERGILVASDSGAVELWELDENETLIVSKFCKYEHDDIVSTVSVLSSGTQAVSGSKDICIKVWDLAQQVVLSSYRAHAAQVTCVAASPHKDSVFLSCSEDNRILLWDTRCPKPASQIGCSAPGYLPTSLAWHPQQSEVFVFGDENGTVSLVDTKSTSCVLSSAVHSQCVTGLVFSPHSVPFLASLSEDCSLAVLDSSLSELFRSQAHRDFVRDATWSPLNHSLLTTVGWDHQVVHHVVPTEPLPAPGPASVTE

Compound	IC50 [1] [nM]	IC50 [2] [nM]	IC50 [3] [nM]	IC50 ([2]; read-out: No Co-factor IC50) [nM]	SAM/MTA Ratio [3, 4]	SAM/MTA Ratio [3, 5]
Cc1c(OCc2ccnn2C)ccc2c1CCN(C[C@@H](O)CNC(=O)c1ccnc(NC3CCC3)c1)C2 [Compound 161, 2-(cyclobutylamino)-N-[(2S)-2-hydroxy-3-[5-methyl-6-[(2-methylpyrazol-3-yl)methoxy]-3,4-dihydro-1H-isoquinolin-2-yl]propyl]pyridine-4-carboxamide]	500 to 5000		500 to 5000	≥ 5000		A (a Ki ratio greater than or equal to 10 fold between the Ki in the presence of SAM and the Ki in the presence of MTA)
O=C1N[C@H]2[C@H](CS[C@H]2CCCCC(=O)N2CCC(Nc3cc(C(=O)NC[C@H](O)CN4CCc5cc(OCc6cnco6)ccc5C4)ncn3)CC2)N1 [Compound 265]	50 to 500		< 50	500 to 5000		A (a Ki ratio greater than or equal to 10 fold between the Ki in the presence of SAM and the Ki in the presence of MTA)
O=C(NC[C@H](O)CN1CCc2c(ccc(OCc3cnn[nH]3)c2Cl)C1)c1ccnc(NC2CCC2)c1 [Compound 269, N-[(2S)-3-[5-chloro-6-(1H-triazol-5-ylmethoxy)-3,4-dihydro-1H-isoquinolin-2-yl]-2-hydroxy-propyl]-2-(cyclobutylamino)pyridine-4-carboxamide]	500 to 5000		500 to 5000	≥ 5000		A (a Ki ratio greater than or equal to 10 fold between the Ki in the presence of SAM and the Ki in the presence of MTA)
CC(=O)N1CCC(Nc2cc(C(=O)NC[C@H](O)CN3CCc4c(ccc(OCc5cnnn5C)c4C)C3)ncn2)CC1 [Compound 276, (S)-6-((1-acetylpiperidin-4-yl)amino)-N-(2-hydroxy-3-[5-methyl-6-((1-methyl-1H-1,2,3-triazol-5-yl)methoxy)-3N-dihydroisoquinolin-2(1H)-yl)propyl)pyrimidine-4-carboxamide]	500 to 5000		500 to 5000	≥ 5000		A (a Ki ratio greater than or equal to 10 fold between the Ki in the presence of SAM and the Ki in the presence of MTA)
O[C@@H](CNc1nccc(-c2sccc2Br)n1)CN1CCc2cc(OCc3cnco3)ccc2C1 [Compound 331, (S)-1-((4-(3-bromothiophen-2-yl)pyrimidin-2-yl)amino)-3-(6-(oxazol-5-ylmethoxy)-3,4-dihydroisoquinolin-2(1H)-yl)propan-2-ol]	500 to 5000		500 to 5000	500 to 5000		A (a Ki ratio greater than or equal to 10 fold between the Ki in the presence of SAM and the Ki in the presence of MTA)
Cc1c(OCc2cnco2)cc(F)c2c1CCN(C[C@H](O)CNC(=O)c1ccnc(NC3CCC3)c1)C2 [Compound 332, 2-(cyclobutylamino)-N-[(2R)-3-[8-fluoro-5-methyl-6-(oxazol-5-ylmethoxy)-3,4-dihydro-1H-isoquinolin-2-yl]-2-hydroxy-propyl]pyridine-4-carboxamide]	500 to 5000		500 to 5000	≥ 5000		A (a Ki ratio greater than or equal to 10 fold between the Ki in the presence of SAM and the Ki in the presence of MTA)
CC1(CCC(=O)N2CCC(Nc3cc(C(=O)NC[C@H](O)CN4CCc5cc(OCc6cnco6)ccc5C4)ncn3)CC2)N=N1 [Compound 363, N-[(2S)-2-hydroxy-3-[6-(oxazol-5-ylmethoxy)-3N-dihydro-1H-isoquinolin-2-yl]propyl]-6-[[1-[3-(3-methyldiazirine-3-yl)propanoyl]-4-piperidyl]amino]pyrimidine-4-carboxamide]	50 to 500		50 to 500	500 to 5000		A (a Ki ratio greater than or equal to 10 fold between the Ki in the presence of SAM and the Ki in the presence of MTA)
O=C(NC[C@H](O)CN1CCc2c(ccc(OCc3cnco3)c2Br)C1)c1cc(NC2CCCCC2)ncn1 [Compound 377, (S)—N-(3-(5-bromo-6-(oxazol-5-ylmethoxy)-3A-dihydroisoquinolin-2(1H)-yl)-2-hydroxypropyl)-6-(cyclohexylamino)pyrimidine-4-carboxamide]	500 to 5000		500 to 5000	≥ 5000		A (a Ki ratio greater than or equal to 10 fold between the Ki in the presence of SAM and the Ki in the presence of MTA)
CCCN(C)c1cc(C(=O)NC[C@H](O)CN2CCc3c(ccc(OCc4cnco4)c3Cl)C2)cc(NC2CCC2)n1 [Compound 453, (S)—N-(3-(5-chloro-6-(oxazol-5-ylmethoxy)-3N-dihydroisoquinolin-2(1H)-yl)-2-hydroxypropyl)-2-(cyclobutylamino)-6-(methyl(propyl)amino)isonicotinamide]	500 to 5000	≥ 5000	500 to 5000		A (a Ki ratio greater than or equal to 10 fold between the Ki in the presence of SAM and the Ki in the presence of MTA)	

The next lines start with results.

IC50 [1] [nM]	IC50 [2] [nM]	IC50 [3] [nM]	IC50 ([2]; read-out: No Co-factor IC50) [nM]	Compound	SAM/MTA Ratio [3, 4]	SAM/MTA Ratio [3, 5]
500 to 5000	≥ 5000	500 to 5000		Cc1ncoc1COc1ccc2c(c1)[C@@H](O)CN(C[C@@H](O)CNC(=O)c1ccnc(NC3CCC3)c1)C2 (single isomer, unassigned) [Compound 505]	A (a Ki ratio greater than or equal to 10 fold between the Ki in the presence of SAM and the Ki in the presence of MTA)	
50 to 500		50 to 500	≥ 5000	COCCN(C)c1cc(NC2CCN(C(C)=O)CC2)cc(C(=O)NC[C@@H](O)CN2CCc3cc(OCc4ocnc4C)ccc3C2)c1 (single isomer, unassigned) [Compound 648]		A (a Ki ratio greater than or equal to 10 fold between the Ki in the presence of SAM and the Ki in the presence of MTA)
500 to 5000		500 to 5000	≥ 5000	COCCN(C)c1cc(NC2CCN(C(C)=O)CC2)cc(C(=O)NC[C@H](O)CN2CCc3cc(OCc4ocnc4C)ccc3C2)c1 (single isomer, unassigned) [Compound 649]		A (a Ki ratio greater than or equal to 10 fold between the Ki in the presence of SAM and the Ki in the presence of MTA)
500 to 5000	≥ 5000	50 to 500		O=C(NC[C@H](O)CN1CCc2c(ccc(OCc3cnco3)c2Cl)C1)c1cc(NC2CCC2)ncn1 [Compound 508, (S)—N-(3-(5-chloro-6-(oxazol-5-ylmethoxy)-3,4-dihydroisoquinolin-2(1H)-yl)-2-hydroxypropyl)-6-(cyclobutylamino)pyrimidine-4-carboxamide]	A (a Ki ratio greater than or equal to 10 fold between the Ki in the presence of SAM and the Ki in the presence of MTA)	
500 to 5000	≥ 5000	50 to 500		Cc1c(OCc2cnco2)ccc2c1CCN(C[C@@H](O)CNC(=O)c1cncc(NC3CCOC3)c1)C2 (some centres unmarked) [Compound 510]	A (a Ki ratio greater than or equal to 10 fold between the Ki in the presence of SAM and the Ki in the presence of MTA)	
	500 to 5000			CC(=O)N1CC(Nc2cc(C(=O)NCC(O)CN3CCc4cc(OCc5ocnc5C)ccc4C3)nc(N3CCCCC3)c2)C1 (centres unmarked) [Compound 580]		
		50 to 500	500 to 5000	CC(=O)N1CCC(Nc2cc(C(=O)NCC(O)CN3CCc4nc(OCc5ocnc5C)ccc4C3)cc(N3CCCCC3)n2)CC1 (centres unmarked) [Compound 654]		
